Experimental data published in patent US5866775A, “Glyphosate-tolerant 5-enolpyruvyl-3-phosphoshikimate synthases” (Monsanto Company, priority 1990, dated 1999).

Biological target: T1, pMON8252 encoded petunia EPSPS variant, glycine (101) to alanine and alanine (192) to threonine (Petunia hybrida, UniProt P11043, A264T/G173A)
T1 construct: alanine 192 in the mature petunia EPSP synthase; made in house; host or cells: E. coli SR481 (aroA-)
Assay: EPSP synthase kinetic constants (appKm PEP, appKi glyphosate)
Type: biochemical
Conditions: extract of SR481 cells with pMON8252
Procedure: The balance of the #742 preculture (~750 μl) was used to inoculate 2 ml of 2XYT medium containing 50 μg/ml carbenicillin and was shaken overnight at 37° C. to reach saturation. Plasmid DNA was isolated from an aliquot of the saturated culture using an alkaline lysis procedure. The plasmid was designated pMON8252. An aliquot of the pMON8252 plasmid was used to transform the E. coli host SR481 (described above) and reselected on MOPS medium containing 10 mM glyphosate and 50 μg/ml carbenicillin. A single glyphosate resistant colony of pMON8252 was picked off the selection plate and used to inoculate 3 ml of 2XY1 bacterial medium containing 50 μg/ml carbenicillin. The culture was then aerated on a rotating wheel at 37° C. until saturated and then used to inoculate a larger 250 ml culture. The large culture was grown to saturation by continuously shaking it overnight at 37° C. in a water bath. The bacterial cells were lysed and the extracts were assayed for EPSPS activity.
Specifically, the bacterial cell paste was washed twice with 0.9% saline, suspended in buffer (100 mM Tris-HCl, 5 mM benzamidine HCl) and passed twice through a French Pressure Cell at 1000 psi. The cell extract was separated from the cells by centrifuging at 15,000×gravity for 10 minutes at 5° C. It was desalted using Sephadex G-50 (Pharmacia, Piscataway, N.J.). The desalted extract was assayed for EPSP synthase activity as follows.
Kinetic constants (appKm PEP and appKi glyphosate) were determined for EPSP synthase as described below. Substrate kinetic parameters were determined at pH 7.9 in 50 mM HEPES (N-[2-hydroxyethyl]piperazine-N'-[2-ethanesulfonic acid]) buffer in the presence of 2 mM S3P and varying amounts of ^14 C-PEP (10 μM-400 μM), for 2.0 minutes at 25° C. Reactions were quenched with 100 mM NaAcetate in ethanol, pH 4.5, centrifuged and analyzed for product EPSP formation by HPLC with flow radioactivity detection. HPLC conditions were 0.35M KPi, pH 6.5, on a Synchropak AX100 column at 1.0 ml/minute.

T1 sequence (P11043 73-516 G173A/A264T): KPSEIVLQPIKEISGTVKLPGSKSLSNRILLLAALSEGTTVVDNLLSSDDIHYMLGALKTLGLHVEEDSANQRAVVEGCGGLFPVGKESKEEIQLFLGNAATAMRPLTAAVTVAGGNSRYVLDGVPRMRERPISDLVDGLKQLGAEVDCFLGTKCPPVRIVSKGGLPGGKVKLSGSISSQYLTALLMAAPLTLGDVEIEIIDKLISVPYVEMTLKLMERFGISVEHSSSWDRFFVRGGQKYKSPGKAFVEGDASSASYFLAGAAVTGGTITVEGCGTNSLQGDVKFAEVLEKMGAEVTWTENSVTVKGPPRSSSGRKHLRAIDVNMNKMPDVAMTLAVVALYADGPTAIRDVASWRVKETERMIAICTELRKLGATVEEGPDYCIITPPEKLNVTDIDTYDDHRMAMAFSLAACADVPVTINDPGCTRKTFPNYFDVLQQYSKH

Question: For C=C(OP(=O)(O)O)C(=O)O [PEP, phosphoenolpyruvate], which “Km for PEP” value is on record?
Answer: 54 µM
